Measurements published in patent publication US8519110B2, “mRNA cap analogs” (Board of Supervisors of Louisiana State University And …, priority 2008, dated 2013).
Like-named read-outs stand apart in the source and are kept apart here. Each block holds one compound with its values, some of them ahead of it.

What was measured:
recombinant human Dcp2 = recombinant human Dcp2 (Homo sapiens, UniProt Q8IU60); details: mRNAs capped with the analog; cited from earlier work
cultured mammalian cells [1] = details: compared with ARCA-capped (m2^7,3′-OGpppG) mRNA; cited from earlier work
eIF4E [2] = target: T1, eIF4E (Mus musculus, UniProt P63073); details: literature comparison; cited from earlier work
cultured mammalian cells [3] = details: compared with ARCA-capped mRNA; cited from earlier work
[4] = Chemical stability in solution and on storage; assay type: physicochemical
Protocol: FIG. 5 depicts the synthesis of m2^7,2′-OGppSepG. The selenophosphate (PSeO3^−3) was prepared by a modification of the method described in R. Glass et al., “Selenophosphate,” Meth. Enzymol., vol. 252, pp. 309-315 (1995). Trimethylsilyl phosphite was treated with selenium in pyridine to give trimethylsilyl selenophosphate, which was then desilylated by methanol in the presence of triethylamine to give the selenophosphate triethylammonium salt. This compound was coupled with the imidazolide derivative of 7,2′-O-dimethylguanosine 5′-monophosphate (m2^7,2′-OGMP-Im) to give 7,2′-O-dimethylguanosine 5′-O-(2-selenodiphosphate) (m2^7,2′-OGDPβSe). […] The reaction was very rapid; essentially 100% conversion of m2^7,2′-OGMP-Im into m2^7,2′-OGDPβSe was observed by RP HPLC after 15 min. […] Thus, care was taken to maintain the pH at 7 or above during purification of m2^7,2′-OGDPβSe, which allowed the product to be isolated with 80% yield after ion-exchange chromatography. The m2^7,2′-OGDPβSe was then coupled with the imidazolide derivative of GMP in the presence of excess ZnCl2. Two peaks were observed by RP HPLC, corresponding to two m2^7,2′-OGppSepG diastereomers, which were designated D1 and D2 according to their elution order. However, the coupling proceeded slowly, and complete disappearance of m2^7,2′-OGDPβSe took about two days. The extended reaction time allowed partial hydrolysis of m2^7,2′-OGDPβSe to m2^7,2′-OGMP, and only a moderate reaction yield (40% conversion by HPLC, 25% isolated). The diastereomeric mixture of m2^7,2′-OGppSepG after isolation by ion-exchange chromatography was successfully resolved into pure diastereomers by RP HPLC. The products were characterized by mass spectrometry, ^1H NMR, and ^31P NMR to confirm structures and homogeneity.

Human DcpS = target: T2, Human DcpS (Homo sapiens, UniProt Q96C86); experiment: Assay of susceptibility to DcpS (RP HPLC); assay type: biochemical; details: 40 μM cap analog, 30° C., up to 120 min
T2 construct: made in house; host or cells: Escherichia coli
T2 sequence (Q96C86 1-337): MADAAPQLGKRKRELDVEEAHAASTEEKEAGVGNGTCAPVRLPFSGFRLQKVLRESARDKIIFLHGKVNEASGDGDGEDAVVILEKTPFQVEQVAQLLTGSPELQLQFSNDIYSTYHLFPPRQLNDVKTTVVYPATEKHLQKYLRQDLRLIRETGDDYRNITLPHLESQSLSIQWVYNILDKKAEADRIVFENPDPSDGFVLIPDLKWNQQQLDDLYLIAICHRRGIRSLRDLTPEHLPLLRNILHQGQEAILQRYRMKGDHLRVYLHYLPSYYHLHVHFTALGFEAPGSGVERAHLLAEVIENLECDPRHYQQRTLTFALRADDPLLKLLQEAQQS
Protocol: Human DcpS was expressed in Escherichia coli as described in L. Cohen et al., “Nematode m^7GpppG and m3^2,2,7GpppG decapping: activities in Ascaris embryos and characterization of C. elegans scavenger DcpS,” RNA, vol. 10, pp. 1609-1624 (2004). A 15 μM solution of the protein in 20 mM Tris buffer, pH 7.5, containing 50 mM KCl, 0.2 mM EDTA, 1 mM DTT, 0.5 mM PMSF, and 20% glycerol was stored at −80° C. until used. Enzymatic reactions were carried out at 30° C. in 500 μl of 50 mM Tris-HCl, pH 7.9, containing 20 mM MgCl2 and 60 mM (NH4)2SO4. A 40 μM solution of the selected cap analog was treated with 5.0 μl of DcpS for 120 min. At times of 10, 30, 60, and 120 min, a 100-μl sample was collected from the reaction mixture and deactivated by incubation at 90° C. for 2 min. Samples were analyzed without further treatment by analytical RP HPLC with a linear gradient of methanol in 0.1 M KH2PO4, pH 6.0, from 0-50% over 15 min.

eIF4E [5] = target: T1, eIF4E; experiment: Binding affinity of cap analogs to eIF4E by fluorescence titration; details: equilibrium association constant; 20 °C, pH 7.2, ionic strength 150 mM
Protocol: Fluorescence titration measurements were carried out on an LS-50B or LS-55 spectrofluorometer (Perkin Elmer Co.) at 20.0±0.2° C. in 50 mM HEPES/KOH (pH 7.2), 0.5 mM EDTA, and 1 mM DTT, with ionic strength adjusted to 150 mM by addition of KCl. Various cap analogue solutions, of increasing concentration, were added in 1 μl aliquots to 1.4 ml of 0.1 or 0.2 μM protein solutions. Fluorescence intensities were measured with excitation at 280 nm or 295 nm with 2.2 nm bandwidth, and detection at 337 nm with 4 nm bandwidth and a 290-nm cut-off filter. The data were corrected for sample dilution and inner filter effects. Equilibrium association constants (Kas) were determined by fitting the theoretical dependence of fluorescence intensity on cap analog concentration to the experimental data, as otherwise described in A. Niedźwiecka et al., “Biophysical studies of eIF4E cap-binding protein: recognition of mRNA 5′ cap structure and synthetic fragments of eIF4G and 4E-BP1 proteins,” J. Mol. Biol., vol. 312, pp. 615-635 (2002). The concentration of protein was allowed to be a free parameter in the equilibrium equation, to determine the amount of “active” protein. The final Kas was calculated as a weighted average of three to ten independent titrations, with the weights taken as the reciprocals of the squares of the numerical standard deviations. Numerical nonlinear least-square regression analysis was performed using ORGIN 6.0 (Microcal Software Inc., USA).
The binding affinities of eukaryotic eIF4E for various cap analogs were determined by fluorescence quenching. This biophysical test allows one to predict the potential efficacy of cap analogs in translation. Those having higher affinities for eIF4E than the unmodified cap analog (m^7GpppG) are expected to be better recognized by the translational machinery, leading to higher translational efficiencies. They also are expected to compete more effectively with unmodified mRNA when free cap dinucleotides are used to inhibit translation. See generally E. Grudzien-Nogalska et al., “Synthesis of anti-reverse cap analogs (ARCAs) and their applications in mRNA translation and stability,” Methods Enzymol., vol. 431, pp. 203-227 (2007).

[6] = tested on: rabbit reticulocyte lysate system; experiment: In vitro translation efficiency of capped luciferase mRNA with 31-base poly(A) tail, method II transcripts; assay type: biochemical
Protocol: Capped, polyadenylated luciferase mRNAs were synthesized in vitro by PCR from a dsDNA template that contained the SP6 promoter, the 5′-UTR sequence of rabbit β-globin mRNA, the entire firefly luciferase coding region, and 31 adenosine residues. A typical transcription reaction mixture (40 μl) contained SP6 transcription buffer (Fermentas), 0.7 ug of DNA template, 1 U/μl RiboLock Ribonuclease Inhibitor (Fermentas), 0.5 mM each of ATP, CTP, and UTP, 0.1 mM GTP, and 0.5 mM dinucleotide cap analog. The reaction mixture was incubated at 37° C. for 5 min before addition of SP6 RNA polymerase (Fermentas) to a final concentration of 1 U/μl, and incubation then continued for 45 min at 37° C. The reaction mixture was treated with DNase as in Method I. RNA transcripts were purified with NucAway Spin Columns (Ambion). The integrity of transcripts and quantitation was performed as in Method I.
A micrococcal nuclease-treated rabbit reticulocyte lysate system (Flexi Rabbit Reticulocyte Lysate System, Promega) was used for in vitro translation. Translation reactions were performed in 10 μl for 60 min at 30° C. A typical reaction mixture contained 40% reticulocyte lysate, the 20 “standard” amino acids (0.01 mM each), MgCl2 (1.2 mM), potassium acetate (170 mM), and mRNA (five different concentrations of each transcript, ranging from 0.25 to 4 μg/ml). Luciferase activity was measured in a luminometer (Glomax, Promega). Linear regression was used to fit the data points (luciferase activity versus concentration of mRNA transcript), and translational efficiency was defined as the slope of this line. The relative translational efficiencies of the test mRNAs were compared to that of m^7GpppG-capped luciferase mRNA, the latter being defined as 1.0.

[7] = target: cap-dependent translation of luciferase mRNA in reticulocyte lysate; experiment: Inhibition of cap-dependent translation in vitro by free cap analogs; assay type: biochemical, rabbit
Protocol: In vitro translation reactions were performed in 12.5 μl for 60 min at 30° C. under conditions favorable for cap-dependent translation. In some cases, the reaction mixture was incubated for 60 min at 30° C. prior to adding the dinucleotide cap analog (inhibitor) and m2^7,3′-OGppG-capped luciferase mRNA to start translation. In other cases, to analyze biological stability, the cap analog was incubated in the translation mixture for 60 min at 30° C. prior to adding the luciferase mRNA to start translation. A typical reaction mixture contained 56% reticulocyte lysate, the 20 “standard” amino acids (0.01 mM each), MgCl2 (1.2 mM), potassium acetate (170 mM), RiboLock Ribonuclease Inhibitor (0.32 U/μl), cap analog solution ( 1/10 of total reaction volume), and m2^7,3′-OGpppG-capped luciferase RNA. […] Reactions were performed with cap analog concentrations ranging from 0.12 to 100 μM. Luciferase activity was measured in a luminometer. […] The program OriginPro8 (OriginLab) was used for curve fitting with the equation qLUC=Z/(1+I/IC50)+N, where qLUC is the activity of luciferase synthesized in the presence of cap analog, Z is the activity of luciferase synthesized in the absence of cap analog, N is the activity of luciferase synthesized in a cap-independent manner, and I is the cap analog concentration.
Two type of experiments were carried out. In one set of experiments (condition A), a cap analog was added to the translation system together with luciferase mRNA. In the other set of experiments (condition B), the cap analog was incubated in the translation system for 60 min before addition of mRNA. […] There was a correlation between the resistance to hydrolysis by DcpS and the stability of analogs in the translation system.

[8] = cap analog added together with luciferase mRNA, read-out: Inhibition of in vitro translation (IC50), condition A
[9] = cap analog incubated in translation system 60 min before addition of mRNA, read-out: Inhibition of in vitro translation (IC50), condition B

T1 sequence (P63073 28-217 limits assumed): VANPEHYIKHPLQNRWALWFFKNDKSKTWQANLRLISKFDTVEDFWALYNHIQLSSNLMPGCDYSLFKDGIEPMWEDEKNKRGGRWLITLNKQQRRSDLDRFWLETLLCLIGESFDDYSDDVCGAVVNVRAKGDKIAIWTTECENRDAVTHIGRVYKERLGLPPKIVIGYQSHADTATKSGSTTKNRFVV

Compound: CO[C@H]1[C@@H](O)[C@H](n2c[n+](C)c3c(=O)[nH]c(N)nc32)O[C@@H]1COP(=O)([O-])OP(=O)(O)CP(=O)(O)OC[C@H]1O[C@@H](n2cnc3c(=O)[nH]c(N)nc32)[C@H](O)[C@@H]1O [m2^7,3′-OGppCH2pG]
Hydrolysis of capped mRNA by recombinant human Dcp2 in vitro (recombinant human Dcp2): resistant to hydrolysis
Stability of capped mRNA in cultured cells (cultured mammalian cells [1]): more stable than those capped with m2^7,3′-OGpppG
Binding affinity for eIF4E (eIF4E [2]): lower binding affinity for eIF4E than that of m2^7,3′-OGpppG
Overall translational efficiency of capped mRNA in cells (cultured mammalian cells [3]): lower overall translational efficiency

Compound: COC1C(O)C(COP(=O)([O-])OP(O)(O)=[Se])OC1n1c[n+](C)c2c(=O)[nH]c(N)nc21 (centres unmarked) [m2^7,2′-OGDPβSe, 7,2′-O-dimethylguanosine 5′-O-(2-selenodiphosphate)]
Stability in acidic aqueous solutions ([4]; acidic aqueous solutions, hydrolyzed to m2^7,2′-OGMP): unstable
Stability in neutral or basic solutions ([4]; neutral or basic solutions): only moderately stable

Susceptibility to DcpS (Human DcpS): resistant
Cap analog/eIF4E affinity (KAS) (eIF4E [5]): 44 ± 2 μM^−1
Translation efficiency in comparison to m^7GpppG-LUC-(A)31 mRNA, Experiment No. 4 ([6]; experiment 4): 1.65
Translation efficiency in comparison to m^7GpppG-LUC-(A)31 mRNA, Experiment No. 5 ([6]; experiment 5): 2.17
Translation efficiency in comparison to m^7GpppG-LUC-(A)31 mRNA, Mean ([6]; mean of experiments): 1.91
IC50 [7, 8]: 1600 ± 300 nM
IC50 [7, 9]: 1300 ± 100 nM
Compound: [BH3-]P(=O)(OP(=O)(O)OCC1OC(n2cnc3c(=O)[nH]c(N)nc32)C(O)C1O)OP(=O)(O)OCC1OC(n2c[n+](C)c3c(=O)[nH]c(N)nc32)C(O)C1O (single isomer, unassigned) [m^7GppBH3pG (D1), m^7GppBH3pG]

Susceptibility to DcpS (Human DcpS): hydrolyzed
Cap analog/eIF4E affinity (KAS) (eIF4E [5]): 14.5 ± 0.2 μM^−1
IC50 [7, 8]: 3200 ± 300 nM
IC50 [7, 9]: 9200 ± 1900 nM
Compound: [BH3-]P(=O)(OC[C@H]1O[C@@H](n2cnc3c(=O)[nH]c(N)nc32)[C@H](O)[C@@H]1O)OP(=O)(O)OP(=O)(O)OC[C@H]1O[C@@H](n2c[n+](C)c3c(=O)[nH]c(N)nc32)[C@H](O)[C@@H]1O (single isomer, unassigned) [m^7GpppBH3G (D1), m^7GpppBH3G]
